Values quoted from earlier work in patent US8962638B2, “Piperidine inhibitors of janus kinase 3” (Auspex Pharmaceuticals, Inc., priority 2009, dated 2015).

Experiments:
[1] = humans, 14C labeled CP-690550, oral

SMILES: C[C@@H]1CCN(C(=O)CC#N)C[C@@H]1N(C)c1ncnc2[nH]ccc12 [CP-690550, 4-methyl-3-(methyl-7H-pyrrolo[2,3-d]pyrimidin-4-ylamino)-beta-oxo-(3R,4R)-1-piperidinepropanenitrile]
- mean terminal phase half-life of unchanged CP-690550 [1]: approximately 3.2 hours
- renal excretion of unchanged drug, share of clearance (in vivo): ~30%
- non-renal share of clearance (via hepatic metabolism by CYP3A4/5 and CYP2C19): approximately 70%
